# Assay results: ChEMBL document CHEMBL5143654, “Synthesis and biological evaluation of marine natural product, Cryptoechinuline D derivatives as novel antiangiogenic agents” (Bioorg Med Chem Lett, 2022)
# pIC50: −log10 of the molar value. Active and inactive are the calls of the source. The calls are words filed in the database; no cut-off is given here.
# Experiments:
# HUVEC [1] = assay: Cytotoxicity against HUVEC cells assessed as cell viability at 50 uM measured after 24 hrs by MTT assay; format: functional; settings: Homo sapiens, read-out: Activity
# HUVEC [2] = assay: Anti-angiogenesis activity against HUVEC cells assessed as decrease in Tie2 phosphorylation at Tyr1102/1100 level at 5 to 10 uM measured after 24 hrs by Western blot analysis; format: functional, cell-based; settings: Homo sapiens, dose 5-10 µM
# HUVEC [3] = assay: Anti-angiogenesis activity against HUVEC cells assessed as decrease in Ang2 level at 5 to 10 uM measured after 24 hrs by Western blot analysis; format: functional, cell-based; settings: Homo sapiens, dose 5-10 µM
# HUVEC [4] = assay: Anti-angiogenesis activity against HUVEC cells assessed as inhibition of horizontal migration at 5 to 10 uM measured after 8 hrs by wound healing assay; format: functional, cell-based; settings: Homo sapiens, dose 5-10 µM
# HUVEC [5] = assay: Anti-angiogenesis activity against HUVEC cells assessed as inhibition of vertical migration at 5 to 10 uM measured after 24 hrs by Transwell assay; format: functional, cell-based; settings: Homo sapiens, dose 5-10 µM
# HUVEC [6] = assay: Cytotoxicity against HUVEC cells assessed as inhibition of cell viability measured after 24 hrs by MTT assay; format: functional, cell-based; settings: Homo sapiens
# HUVEC [7] = assay: Antiproliferative activity against HUVEC assessed as decrease in number Edu-positive cells at 5 to 10 uM after 24 hrs by fluorescence microscopic analysis; format: functional, cell-based; settings: Homo sapiens, dose 5-10 µM
# HUVEC [8] = assay: Anti-angiogenesis activity against HUVEC cells assessed as inhibition of cell migration at 5 to 10 uM measured after 24 hrs by Matrigel invasion assay; format: functional, cell-based; settings: Homo sapiens, dose 5-10 µM
SMILES,viability at 50 µM (HUVEC [1]),also measured
C=CC(C)(C)c1[nH]c2ccccc2c1/C=C1\NC(=O)[C@@]2(C[C@@H](C)C=C[C@H]2/C=C/c2c(OC(C)=O)cc(CC=C(C)C)c(O)c2CO)NC1=O (racemic),40.4%,–
C=CC(C)(C)c1[nH]c2ccccc2c1/C=C1\NC(=O)[C@@]2(C[C@@H](C)C=C[C@H]2/C=C/c2c(OC)cc(CC=C(C)C)c(O)c2C=O)NC1=O (racemic),31.1%,–
C=CC(C)(C)c1[nH]c2ccccc2c1/C=C1\NC(=O)[C@@]2(C[C@@H](C)C=C[C@H]2/C=C/c2c(OC)cc(CC=C(C)C)c(O)c2CN2CCCC2)NC1=O (racemic),81.6%,–
C=CC(C)(C)c1[nH]c2ccccc2c1/C=C1\NC(=O)[C@@]2(C[C@@H](C)C=C[C@H]2/C=C/c2c(OC(C)=O)cc(CC=C(C)C)c(OC(C)=O)c2C=O)NC1=O (racemic),5.33%,inhibition (HUVEC [2]): Active; inhibition (HUVEC [3]): Active; inhibition (HUVEC [4]): Active; inhibition (HUVEC [5]): Active; pIC50 (HUVEC [6]): 4.90; inhibition (HUVEC [6]; DDE = dose-dependent effect): Dde; inhibition (HUVEC [7]): Active; inhibition (HUVEC [8]): Active
C=CC(C)(C)c1[nH]c2ccccc2c1/C=C1\NC(=O)[C@@]2(C[C@@H](C)C=C[C@H]2/C=C/c2c(OC(C)=O)cc(CC=C(C)C)c(O)c2C=O)NC1=O (racemic),33.7%,–
C=CC(C)(C)c1[nH]c2ccccc2c1/C=C1\NC(=O)[C@@]2(C[C@@H](C)C=C[C@H]2/C=C/c2c(OC(C)=O)cc(CC=C(C)C)c(OC(C)=O)c2COC(C)=O)NC1=O (racemic),83.2%,–
C=CC(C)(C)c1[nH]c2ccccc2c1/C=C1\NC(=O)[C@@]2(C[C@@H](C)C=C[C@H]2/C=C/c2c(OC(C)=O)cc(CC=C(C)C)c(O)c2C#N)NC1=O (racemic),71.8%,–
C=CC(C)(C)c1[nH]c2ccccc2c1/C=C1\NC(=O)[C@@]2(C[C@@H](C)C=C[C@H]2/C=C/c2c(OC(C)=O)cc(CC=C(C)C)c(O)c2CN(CC)CC)NC1=O (racemic),94.3%,–
C=CC(C)(C)c1[nH]c2ccccc2c1/C=C1\NC(=O)[C@@]2(C[C@@H](C)C=C[C@H]2/C=C/c2c(O)cc(CC=C(C)C)c(OC)c2C=O)NC1=O (racemic),78.7%,–
C=CC(C)(C)c1[nH]c2ccccc2c1/C=C1\NC(=O)[C@@]2(C[C@@H](C)C=C[C@H]2/C=C/c2c(OC(C)=O)cc(CC=C(C)C)c(OC(C)=O)c2/C=N\O)NC1=O (racemic),94.4%,–
C=CC(C)(C)c1[nH]c2ccccc2c1/C=C1\NC(=O)[C@@]2(C[C@@H](C)C=C[C@H]2/C=C/c2c(OC(C)=O)cc(CC=C(C)C)c(O)c2/C=N\O)NC1=O (racemic),93%,–
C=CC(C)(C)c1[nH]c2ccccc2c1/C=C1\NC(=O)[C@@]2(C[C@@H](C)C=C[C@H]2/C=C/c2c(OC)cc(CC=C(C)C)c(OC)c2C=O)NC1=O (racemic),87.5%,–
C=CC(C)(C)c1[nH]c2ccccc2c1/C=C1\NC(=O)[C@@]2(C[C@@H](C)C=C[C@H]2/C=C/c2c(O)cc(CC=C(C)C)c(O)c2C=O)NC1=O (racemic),82.1%,–
